Reference: patent publication EP3207939A2, “USE OF A PROTEIN/PEPTIDE COMPLEX FOR TREATING AND PREVENTING ATHEROSCLEROSIS, METHOD FOR TREATING AND PREVENTING ATHEROSCLEROSIS (VARIANTS)” (Diamondzlite Limited, priority 2014, dated 2016)
Read-outs that look alike come from different tables or passages of the source.

Legend:
[1] = cited from earlier work
[2] = system: atherosclerotic cells of the intima of human's aorta; experiment: Intracellular cholesterol and lipid content in cultured atherosclerotic cells, in vitro model
[3] = system: cultured atherosclerotic cells; experiment: Inclusion of [3H] thymidine (proliferative activity) in cultured atherosclerotic cells; format: cell-based, human
Description: For research on the impact of the original PPC and PPPC with the conditional name "Cellex" (hereinafter - Cellex, as a modifier and activator of biological reactions) on the level of reduction of the atherogenic potential of blood serum of patients having atherosclerosis according to the known method, a primary culture of subendothelial cells of the human's aorta was obtained from various sections of the intima of the thoracic aorta of men and women aged 40-65 years within 1.5-3 hours after sudden death, which differed by the degree of atherosclerotic disease, then it was treated by collagenase, and the cells were cultured.

[4] = system: cells extracted from normal or damaged sections of the intima of human's aorta; experiment: Determination of the synthesis of collagen ([3H]-proline inclusion); format: cell-based; conditions: Verapamil 5 x 10^-5 M; control 2500 ± 102 dpm/103
Description: Cells extracted from normal or damaged sections of the intima of human's aorta were incubated for 24 hours in the presence of 5 µCi/ml [3H]-proline. Upon completion of incubation, inclusion of marked proline into the culture medium fraction treated by collagenase was determined by the method of Peterkofsky and Diegelmann. Table 1. Influence of lipostabil, lovastatin and cellex on the cholesterol content in atherosclerotic cells of the intima of human's aorta in vitro.

[5] = system: primary culture of atherosclerotic cells; experiment: Ex vivo model: volunteers' blood serum added to primary culture of atherosclerotic cells, intracellular cholesterol; format: cell-based, human
Description: For the ex vivo model, blood was taken from volunteers immediately prior to Cellex intake and after the corresponding intervals after the intranasal intake (after 2, 4, and 6 hours for screening studies and assessment of the short-term effect, as well as after 4, 8, 12, and 24 hours for the assessment of duration of the effect).
Volunteers took PPC - Cellex at once in the form of an intranasal spray in complex with polynucleotides in the form of sodium salts of DNA - PPPC, 400 µg of a 0.1% solution (per total protein and DNA) - 2 injections of 200 µg in each nasal duct in the morning, the drug for comparison was Verapamil in the dose of 400 mg; the control group received intranasally 50 mM of glycine-phosphate buffer solution with the same pH (7.8) and with the same regimen. Blood was taken prior to drug or control intake (time "0") and 1, 2, 4, and 8 hours after the intake. Samples were prepared from the bloodserum, and serum samples were added to the primary culture of atherosclerotic cells. […] Consequently, starting from the 1 st hour after single intake of the claimed drug and from the 2nd hour after Verapamil intake, blood serum acquires antiatherosclerotic properties manifested in the contribution to reverse cholesterol transport from atherosclerotic cells. Antiatherosclerotic properties of serum are preserved for at least 12 hours after Verapamil intake and up to 18 hours after intake of the claimed drug. Table 5. Comparative table of the antiatherogenic action of Cellex and Verapamil in the ex vivo model.

[6] = rabbits, 28 days, food with 1% cholesterol, 0.6 g of beta-carotene per 1 kg of food; cited from earlier work
[7] = hypersensitive rats, 125-500 mg per 1 kg of food with cholesterol-rich food, 44 days; cited from earlier work
[8] = guinea pigs, 12 weeks, cited from earlier work
[9] = smoking people, 20 mg/day, 14 weeks; cited from earlier work
[10] = rabbits, single peroral administration; cited from earlier work
[11] = long-term administration, daily dose of 3 g

In the case of N[C@H](Cc1cc(I)c(Oc2cc(I)c(O)c(I)c2)c(I)c1)C(=O)O [D-thyroxine], the “reduction of the concentration of low-density lipoproteins” value ([1]; daily dose of 4-8 mg) is given as 20%.

With CC[C@H](C)C(=O)O[C@H]1C[C@@H](C)C=C2C=C[C@H](C)[C@H](CC[C@@H]3C[C@@H](O)CC(=O)O3)[C@H]21 [Lovastatin] the “Content of intracellular cholesterol” value ([2]; concentration 10^-6 M, control 105 ± 11, average of three independent experiments) was 110 ± 10 µg/mg.

With COc1ccc(CCN(C)CCCC(C#N)(c2ccc(OC)c(OC)c2)C(C)C)cc1OC (centres unmarked) [Verapamil] the “Inclusion of [3H] thymidine” value ([3]; Verapamil 10^-4 M) was 20 ± 2 % of control, the “Inclusion of [3H] thymidine” value ([3]; Verapamil 10^-5 M) was 34 ± 2 % of control and the “Inclusion of [3H] thymidine” value ([3]; Verapamil 10^-6 M) was 50 ± 2 % of control. The “Inclusion of [3H] thymidine” value ([3]; Verapamil 10^-7 M) was 86 ± 7 % of control, the Synthesis of collagen [4] was 74 ± 5 % of control and the “Antiatherosclerotic properties of serum are preserved” value ([5]; after single intake) was “at least 12 hours”. For the same compound, the “blood serum acquires antiatherosclerotic properties, starting from” value ([5]; after single intake) was 2 h, the Intracellular cholesterol content ([5]; serum 1 hr after Verapamil 400 mg, control 221 ± 13 µg cholesterol per 1 mg cellular protein) was 97 ± 10 % of control and the Intracellular cholesterol content ([5]; serum 2 hr after Verapamil 400 mg) was 84 ± 6 % of control. For the same compound, the Intracellular cholesterol content ([5]; serum 4 hr after Verapamil 400 mg) was 77 ± 8 % of control, the Intracellular cholesterol content ([5]; serum 8 hr after Verapamil 400 mg) was 85 ± 4 % of control and the Intracellular cholesterol content ([5]; serum 12 hr after Verapamil 400 mg) was 90 ± 6 % of control. The Intracellular cholesterol content ([5]; serum 18 hr after Verapamil 400 mg) was 104 ± 4 % of control, the Triglycerides ([2]; Verapamil 5 x 10^-5 M, control 12.1 ± 1.7 µg/105) was 76 ± 2 % of control and the Free cholesterol ([2]; Verapamil 5 x 10^-5 M, control 46.8 ± 5.3 µg/105) was 90 ± 8 % of control. The Phospholipids ([2]; Verapamil 5 x 10^-5 M, control 71.4 ± 10.9 µg/105) was 61 ± 8 % of control, the Total cholesterol ([2]; Verapamil 10^-5 M) was 61 ± 4 % of control and the Total cholesterol ([2]; Verapamil 10^-6 M) was 82 ± 8 % of control. For the same compound, the Total cholesterol ([2]; Verapamil 10^-7 M, control 57.4 ± 1.2 µg/105) was 104 ± 5 % of control.

In the case of CC1=C(/C=C/C(C)=C/C=C/C(C)=C/C=C/C=C(C)/C=C/C=C(C)/C=C/C2=C(C)CCCC2(C)C)C(C)(C)CCC1 [beta-carotene], the “LDL resistance to oxidation” value [6] is listed as “no impact of beta-carotene on LDL resistance to oxidation was detected”, the “elasticity of endothelial vessels” value [6] is listed as “elasticity of endothelial vessels was preserved” and the “cholesterol and triglyceride levels in blood serum” value [7] is listed as “dose-dependent reduction”. The “sizes of sclerotic clots in aorta” value ([8]; 50 mg of beta-carotene/100 g of food) was “significant reduction”, the “cholesterol and triglyceride levels in blood serum” value ([8]; daily 0.2% cholesterol and 15-30 mg of beta-carotene) was “no verifiable differences” and the “beta-carotene level in blood serum increased” value [9] was 15 times. For the same compound, the “level of lipoproteins in blood serum” value [9] was “no visible effect was identified”.

For CC(C)=CCC/C(C)=C/C=C/C(C)=C/C=C/C(C)=C/C=C/C=C(C)/C=C/C=C(C)/C=C/C=C(\C)CCC=C(C)C [lycopene], the “return of blood serum concentration to the initial level” value [10] is listed as 24 h and the “time of maximum concentration in blood serum” value [10] is listed as 8 h.

In the case of O=C(O)c1cccnc1 [nicotinic acid], the “cholesterol level in blood serum lowered” value [1, 11] is given as 10% and the “triglycerides in blood serum lowered” value [1, 11] is given as 20%.
